Data taken from patent publication US11591311B2, “3-oxo-6-heteroaryl-2-phenyl-2,3-dihydropyridazine-4-carboxamides” (priority 2017, dated 2023).

What was measured:
AHR [1] = molecular target: T1, AHR (Homo sapiens, UniProt P35869); experiment: In vitro assay 3: AHR-regulated CYP1A1 expression in human cell line (U937, qPCR); format: cell-based; conditions: human monocytic U937 cells, CYP1A1 expression induced with 200 μM KA, 6 hours, quantitative PCR; read-out: Assay 3: Hum CYP1A1 Antagonism IC50
T1 construct: U87 glioblastoma cells (ATCC) endogenously expressing AHR; host or cells: U87 glioblastoma cells, stably transfected with DRE-firefly luciferase and renilla reporter constructs
T1 sequence (P35869 11-848): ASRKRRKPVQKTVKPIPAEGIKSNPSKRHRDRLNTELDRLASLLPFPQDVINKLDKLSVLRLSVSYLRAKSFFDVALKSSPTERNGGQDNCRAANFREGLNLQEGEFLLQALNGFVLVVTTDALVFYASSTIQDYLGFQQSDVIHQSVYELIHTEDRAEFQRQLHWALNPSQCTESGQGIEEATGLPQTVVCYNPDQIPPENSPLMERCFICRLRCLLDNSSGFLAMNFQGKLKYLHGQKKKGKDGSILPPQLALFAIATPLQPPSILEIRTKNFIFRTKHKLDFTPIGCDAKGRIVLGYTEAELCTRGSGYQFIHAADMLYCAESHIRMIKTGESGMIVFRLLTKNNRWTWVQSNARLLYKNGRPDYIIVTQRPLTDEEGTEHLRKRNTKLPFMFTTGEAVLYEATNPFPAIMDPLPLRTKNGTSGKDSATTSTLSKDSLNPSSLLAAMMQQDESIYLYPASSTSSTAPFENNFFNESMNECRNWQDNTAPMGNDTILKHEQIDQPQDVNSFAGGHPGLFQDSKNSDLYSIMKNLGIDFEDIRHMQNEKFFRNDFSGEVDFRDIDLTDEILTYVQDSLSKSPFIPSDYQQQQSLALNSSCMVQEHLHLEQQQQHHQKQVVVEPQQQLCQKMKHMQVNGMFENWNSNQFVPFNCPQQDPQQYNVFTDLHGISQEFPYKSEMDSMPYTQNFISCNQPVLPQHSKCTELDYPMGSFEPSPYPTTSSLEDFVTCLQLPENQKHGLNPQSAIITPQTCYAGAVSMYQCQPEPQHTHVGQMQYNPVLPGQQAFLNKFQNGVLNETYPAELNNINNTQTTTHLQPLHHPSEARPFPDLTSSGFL
Description: In Vitro Assay 3: AHR-Regulated CYP1A1 Expression in Human Cell Line
To assess the AHR inhibitory activity of the substances described in this application, the ability thereof to antagonise ligand-induced AHR gene regulation in a dose-dependent manner was quantified. For this purpose, quantitative PCR analysis was used to determine expression of the AHR-regulated gene CYP1A1 in a human monocytic U937 cell line upon stimulation with 200 μM KA in the presence and absence of AHR inhibitor. […] CYP1A1 expression was induced with 200 μM KA (positive control) in the presence or absence of the substances for 6 hours. Human U937 cells were typically incubated with eight different concentrations of the substances (1 nM, 3 nM, 10 nM, 30 nM, 100 nM, 300 nM, 1 μM and 3 μM) and analyzed in duplicate on the same microtitre plate. […] Unstimulated cells were used as the negative control. Taqman probes for human CYP1A1 (Hs01054797_g1) and human HPRT (Hs02800695_m1) were used to analyze fold expression of CYP1A1 of HPRT. Quantitation was performed on a Taqman SDS7900HT.

AHR [2] = molecular target: T1, AHR; experiment: In vitro assay 1: AHR-luc transactivation assay, antagonism in human cell line (U87 glioblastoma cells prestimulated with kynurenic acid); format: cell-based
Description: Transactivation Assay in Human Cell Line (In Vitro Assays 1 and 2)
Transactivation assays were carried out in U87 glioblastoma cells (ATCC) endogenously expressing AHR. In addition the cells were stably transfected with an AHR inducible firefly luciferase reporter gene construct that carried AHR-binding sites (DRE) in its promoter and a renilla reporter gene construct with constitutively active promoter. Kynurenic acid is an endogenous AHR activating ligand and was used to prestimulate test cells prior to testing the antagonistic properties of compounds.
In Vitro Assay 1: Antagonism in Human Cell Line
Cells in medium (tryptophan free RPMI, 1% FCS, 2 mM Glutamine) supplemented with 150 μM kynurenic acid were grown for 20 hours in absence (negative control) or presence of increasing concentrations of test compounds (typical dilutions: 72 pmol/L, 0.25 nmol/L, 0.89 nmol/L; 3.1 nmol/L, 11 nmol/L, 38 nmol/L, 130 nmol/L, 470 nmol/L, 1.6 μmol/L, 5.7 μmol/L and 20 μmol/L in duplicates). As positive inhibition control cells supplemented with 150 μM kynurenic acid were incubated in presence of 5 μM Staurosporin. Normalization was done by positive and negative controls.
Firefly luciferase and Renilla activity was determined by the DualGlo Luciferase Assay System (Promega, #2920). Renilla activity was used to assess toxic effects of compounds.

| SMILES | IC50 (AHR [1]) [nM] | IC50 (AHR [2]) [nM] |
| --- | --- | --- |
| C[C@@H](CO)NC(=O)c1cc(-c2ccc(C(F)(F)F)nc2)nn(-c2ccccc2)c1=O [Example 5, N-[(2S)-1-Hydroxypropan-2-yl]-3-oxo-2-phenyl-6-[6-(trifluoromethyl)pyridin-3-yl]-2,3-dihydropyridazine-4-carboxamide] | 281 | 163 |
| C[C@@H](CO)NC(=O)c1cc(-c2ccc(C(F)(F)F)nc2)nn(-c2cccc(F)c2)c1=O [Example 18, 2-(3-Fluorophenyl)-N-[(2S)-1-hydroxypropan-2-yl]-3-oxo-6-[6-(trifluoromethyl)pyridin-3-yl]-2,3-dihydropyridazine-4-carboxamide] | 31.4 | 33.8 |
| C[C@@H](NC(=O)c1cc(-c2ccc(C(F)(F)F)nc2)nn(-c2cccc(F)c2)c1=O)C(C)(C)O [Example 7, 2-(3-Fluorophenyl)-N-[(2R)-3-hydroxy-3-methylbutan-2-yl]-3-oxo-6-[6-(trifluoromethyl)pyridin-3-yl]-2,3-dihydropyridazine-4-carboxamide] | 48.1 | 25.8 |
| O=C(N[C@H]1CCC[C@@H]1O)c1cc(-c2ccc(C(F)(F)F)nc2)nn(-c2cccc(F)c2)c1=O [Example 6, 2-(3-Fluorophenyl)-N-[(1S,2S)-2-hydroxycyclopentyl]-3-oxo-6-[6-(trifluoromethyl)pyridin-3-yl]-2,3-dihydropyridazine-4-carboxamide] | 8.32 | 13.4 |
| C[C@@H](CO)NC(=O)c1cc(-c2ccc(C(F)(F)F)cn2)nn(-c2ccccc2)c1=O [Example 42, N-[(2S)-1-Hydroxypropan-2-yl]-3-oxo-2-phenyl-6-[5-(trifluoromethyl)pyridin-2-yl]-2,3-dihydropyridazine-4-carboxamide] |  | 386 |
| O=C(NCC1(O)CCCCC1)c1cc(-c2ccc(C(F)F)nc2)nn(-c2cccc(F)c2)c1=O [Example 31, 6-[6-(Difluoromethyl)pyridin-3-yl]-2-(3-fluorophenyl)-N-[(1-hydroxycyclohexyl)methyl]-3-oxo-2,3-dihydropyridazine-4-carboxamide] |  | 31.8 |
| O=C(N[C@H]1CCC[C@H]1O)c1cc(-c2ccc(C(F)F)nc2)nn(-c2cccc(F)c2)c1=O [Example 30, 6-[6-(Difluoromethyl)pyridin-3-yl]-2-(3-fluorophenyl)-N-[(1S,2R)-2-hydroxycyclopentyl]-3-oxo-2,3-dihydropyridazine-4-carboxamide] |  | 21.8 |
| N#C[C@@H](CO)NC(=O)c1cc(-c2ccc(C(F)F)nc2)nn(-c2cccc(F)c2)c1=O [Example 32, N-[(1S)-1-Cyano-2-hydroxyethyl]-6-[6-(difluoromethyl)pyridin-3-yl]-2-(3-fluorophenyl)-3-oxo-2,3-dihydropyridazine-4-carboxamide] |  | 55.9 |
| CC(C)(O)[C@@H](NC(=O)c1cc(-c2ccc(C(F)F)nc2)nn(-c2cccc(F)c2)c1=O)C1CC1 [Example 27, N-[(1S)-1-Cyclopropyl-2-hydroxy-2-methylpropyl]-6-[6-(difluoromethyl)pyridin-3-yl]-2-(3-fluorophenyl)-3-oxo-2,3-dihydropyridazine-4-carboxamide] |  | 4.08 |
| C[C@@H](CO)NC(=O)c1cc(-c2ccc(C(F)(F)F)cn2)nn(-c2ccc(F)c(F)c2)c1=O [Example 43, 2-(3,4-Difluorophenyl)-N-[(2S)-1-hydroxypropan-2-yl]-3-oxo-6-[5-(trifluoromethyl)pyridin-2-yl]-2,3-dihydropyridazine-4-carboxamide] |  | 902 |
| O=C(NC[C@H](O)C(F)F)c1cc(-c2cnc(C(F)(F)F)nc2)nn(-c2cccc(F)c2)c1=O [Example 15, N-[(2S)-3,3-Difluoro-2-hydroxypropyl]-2-(3-fluorophenyl)-3-oxo-6-[2-(trifluoromethyl)pyrimidin-5-yl]-2,3-dihydropyridazine-4-carboxamide] |  | 307 |
